How the values were obtained:
[1] = MetS induced by high-fat diet (HFD) in mice; type: in vivo; conditions: C57Bl/j male mice on HFD, benserazide 50 mg/day p.o., 12 weeks
Procedure: In other experiments, we conducted a pre-clinical trial of benserazide on the development of MetS induced by high-fat diet (HFD). HFD was fed to C57Bl/j male mice (6 weeks of age). Benserazide, 50 mg/day, p.o., was administered for 12 weeks (five days/week). Differences (p<0.05) were considered as statistically significant (Mann-Whitney two-tailed test).

[2] = C57BL female mice, N = 10; end of 10-week treatment
Procedure: (§1) C57BL female mice (n=10 mice in each group) were treated with olanzapine (4 mg/kg, po) (control) or with a combination of olanzapine (4 mg/kg, po) and benserazide (100 mg/day, po), 5 days per week for 10 weeks.
(§2) Body weight was checked two times per week. Glucose tolerance, a marker of IR, was determined by a glucose tolerance test (GTT) at the end of the study (day 71). In addition, blood samples were analyzed for cholesterol (total) and triglycerides.

[3] = GTT at day 71; C57BL female mice, N = 10
Procedure: as §1, §2

Compound: NC(CO)C(=O)NNCc1ccc(O)c(O)c1O (centres unmarked) [Benserazide, seryl-(2,3,4-trihydroxybenzyl)-hydrazide]
- Elevation of blood cholesterol induced by HFD, change ([1]; five days/week): −17%
- Elevation of triglycerides induced by HFD, change ([1]; five days/week): −25%
- Excessive weight gain induced by HFD, change ([1]; five days/week): −40%
- Glucose tolerance impairment induced by HFD ([1]; result in words): attenuated
- Effect on weight gain induced by olanzapine (benserazide 100 mg/day po with olanzapine 4 mg/kg po, 10 weeks, result in words): attenuated weight gain

Compound: Cc1cc2c(s1)Nc1ccccc1N=C2N1CCN(C)CC1 [Olanzapine]
- Body weight, Day 1 (C57BL female mice, n = 10, olanzapine 4 mg/kg po with or without benserazide 100 mg/day po, 5 days per week for 10 weeks, Day 1): 17.4 ± 0.13
- Body weight, Day 71 (C57BL female mice, n = 10, olanzapine 4 mg/kg po with or without benserazide 100 mg/day po, 5 days per week for 10 weeks, Day 71): 34.0 ± 0.09
- Cholesterol (total, blood) [2]: 172.33 ± 4.536
- Triglycerides (blood) [2]: 151.00 ± 5.37
- Glucose levels 90 minutes after ingestion of sugar [3]: 520.55 ± 15.63
- Glucose levels baseline (before ingestion of sugar) [3]: 183.25 ± 10.49

Source: patent publication US12527754B2, “Methods and compositions for preventing and treating metabolic syndrome induced by antipsychotic treatment and related diseases and conditions” (Tufts Medical Center, Inc., priority 2018, dated 2026)
